Experimental data from ChEMBL document CHEMBL1201862, “PubChem BioAssay data set” (2004).
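Each compound was tested at five concentrations against cells in 96-well plates for 48 hours. GI50: concentration for 50% inhibition of growth.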 The source made the active and inactive calls. Cut-off read from the data, not from the text of the source: active = GI50 up to about 1.1 µM and inactive = higher.

Key:
Experiment in all cases: DTP human tumour cell line panel, 48 h
OVCAR-8 = system: OVCAR-8
RXF 393 = system: RXF 393
SK-MEL-2 = system: SK-MEL-2
MOLT-4 = system: MOLT-4
HT-29 = system: HT-29
UO-31 = system: UO-31
KM12 = system: KM12
SW-620 = system: SW-620
SF-539 = system: SF-539
K562 = system: K562
NCI-H460 = system: NCI-H460
UACC-257 = system: UACC-257
SK-MEL-5 = system: SK-MEL-5
Malme-3M = system: Malme-3M
A549 = system: A549
HCC 2998 = system: HCC 2998
OVCAR-3 = system: OVCAR-3
HCT-116 = system: HCT-116
HOP-92 = system: HOP-92
OVCAR-5 = system: OVCAR-5

Measured: GI50

C=C(C)CCN[Si](c1ccccc1)(c1ccccc1)C(C)(C)C
inactive: OVCAR-8 19.6 µM | RXF 393 15.3 µM | SK-MEL-2 15.2 µM | MOLT-4 18.7 µM | HT-29 16.6 µM | UO-31 13.7 µM | KM12 18.5 µM | SW-620 40 µM | SF-539 15.6 µM | K562 24.1 µM | NCI-H460 29 µM | UACC-257 15.7 µM | SK-MEL-5 19 µM | Malme-3M 20.5 µM | A549 24.1 µM | HCC 2998 21.1 µM | OVCAR-3 17.6 µM | HCT-116 14.6 µM | HOP-92 18.2 µM

CCOC(=O)CC(=O)CSc1c(-c2ccccc2)c(=O)n(-c2ccccc2)c(=S)n1-c1ccccc1
inactive: OVCAR-8 > 100 µM | RXF 393 > 100 µM | MOLT-4 38.9 µM | HT-29 > 100 µM | UO-31 > 100 µM | KM12 > 100 µM | SW-620 > 100 µM | SF-539 > 100 µM | K562 > 100 µM | NCI-H460 > 100 µM | UACC-257 > 100 µM | Malme-3M > 100 µM | A549 > 100 µM | HCC 2998 > 100 µM | OVCAR-3 > 100 µM | HCT-116 > 100 µM | HOP-92 > 100 µM | OVCAR-5 > 100 µM

O=C(/C=C/c1cccc2ccccc12)c1ccccc1Cl
inactive: OVCAR-8 13.6 µM | RXF 393 16.7 µM | SK-MEL-2 19.3 µM | MOLT-4 3.85 µM | HT-29 13.6 µM | UO-31 14.8 µM | KM12 8.63 µM | SW-620 5.58 µM | SF-539 17.5 µM | K562 5.57 µM | NCI-H460 13.5 µM | UACC-257 17.4 µM | SK-MEL-5 16.9 µM | Malme-3M 16.4 µM | A549 25.8 µM | HCC 2998 15.2 µM | OVCAR-3 12.9 µM | HCT-116 8.95 µM | HOP-92 13 µM

COc1ccc(-c2cc(-c3cc(OC)c(OC)c(OC)c3)cc(-c3cc4ccccc4oc3=O)n2)cc1
inactive: OVCAR-8 4.38 µM | RXF 393 3.24 µM | SK-MEL-2 20 µM | MOLT-4 > 100 µM | HT-29 9.4 µM | UO-31 8.28 µM | KM12 12.6 µM | SW-620 25.2 µM | SF-539 2.76 µM | K562 30.1 µM | NCI-H460 5.78 µM | UACC-257 16.7 µM | SK-MEL-5 5.97 µM | Malme-3M 5.77 µM | A549 15 µM | HCC 2998 17.3 µM | OVCAR-3 17 µM | HCT-116 4.48 µM | HOP-92 4.07 µM

CN1NC(c2ccccc2)=C(C#N)C(=O)CC1c1ccc(Br)cc1 (stereo not drawn)
inactive: RXF 393 36.6 µM | SK-MEL-2 28.3 µM | HT-29 28.9 µM | KM12 25.2 µM | SW-620 25.6 µM | NCI-H460 33.3 µM | UACC-257 69.5 µM | SK-MEL-5 14.2 µM | Malme-3M 23.3 µM | A549 32.2 µM | HCC 2998 34.5 µM | HCT-116 36.8 µM | HOP-92 35.2 µM | OVCAR-5 25.5 µM

Cc1ccc(S(=O)OCC23CC4CC(CC(C4)C2)C3)cc1 (stereo not drawn)
inactive: OVCAR-8 > 100 µM | RXF 393 > 100 µM | MOLT-4 > 100 µM | HT-29 > 100 µM | UO-31 72.8 µM | KM12 > 100 µM | SW-620 > 100 µM | SF-539 > 100 µM | K562 > 100 µM | NCI-H460 > 100 µM | UACC-257 > 100 µM | SK-MEL-5 > 100 µM | Malme-3M > 100 µM | A549 > 100 µM | HCC 2998 > 100 µM | OVCAR-3 > 100 µM | HCT-116 > 100 µM | HOP-92 > 100 µM | OVCAR-5 > 100 µM
